# Assay results as given in patent US9809623B2, “α4β7 peptide monomer and dimer antagonists” (Protagonist Therapeutics, Inc., priority 2014, dated 2017).
# Numbered stars: 1 amine (or outer) side, 2 acyl side, 3 side chain; on linkers, the order of the positions; unused ones are H or OH. Bridge positions count the residues as written; N and C are the ends. Square brackets hold non-standard residues; d marks the D form. Peptide text beside a SMILES is read from it. I, II: the chains in the order shown. Bip = N[C@@H](Cc1ccc(-c2ccccc2)cc1)C(=O)O; Phe(4-CN) = N#Cc1ccc(C[C@H](N)C(=O)O)cc1; 2Nal = N[C@@H](Cc1ccc2ccccc2c1)C(=O)O; Diglycolyl = O=C(COCC(=O)[*:2])[*:1]; NMeR = CN[C@@H](CCCNC(=N)N)C(=O)O; Tic = O=C(O)[C@@H]1Cc2ccccc2CN1; β3hE = N[C@@H](CCC(=O)O)CC(=O)O; NMeK = CN[C@@H](CCCCN)C(=O)O; Pen = CC(C)(S)[C@H](N)C(=O)O
# Target: α4β7 (Homo sapiens, UniProt P13612+P26010)
# Sequence (P13612 34-1032): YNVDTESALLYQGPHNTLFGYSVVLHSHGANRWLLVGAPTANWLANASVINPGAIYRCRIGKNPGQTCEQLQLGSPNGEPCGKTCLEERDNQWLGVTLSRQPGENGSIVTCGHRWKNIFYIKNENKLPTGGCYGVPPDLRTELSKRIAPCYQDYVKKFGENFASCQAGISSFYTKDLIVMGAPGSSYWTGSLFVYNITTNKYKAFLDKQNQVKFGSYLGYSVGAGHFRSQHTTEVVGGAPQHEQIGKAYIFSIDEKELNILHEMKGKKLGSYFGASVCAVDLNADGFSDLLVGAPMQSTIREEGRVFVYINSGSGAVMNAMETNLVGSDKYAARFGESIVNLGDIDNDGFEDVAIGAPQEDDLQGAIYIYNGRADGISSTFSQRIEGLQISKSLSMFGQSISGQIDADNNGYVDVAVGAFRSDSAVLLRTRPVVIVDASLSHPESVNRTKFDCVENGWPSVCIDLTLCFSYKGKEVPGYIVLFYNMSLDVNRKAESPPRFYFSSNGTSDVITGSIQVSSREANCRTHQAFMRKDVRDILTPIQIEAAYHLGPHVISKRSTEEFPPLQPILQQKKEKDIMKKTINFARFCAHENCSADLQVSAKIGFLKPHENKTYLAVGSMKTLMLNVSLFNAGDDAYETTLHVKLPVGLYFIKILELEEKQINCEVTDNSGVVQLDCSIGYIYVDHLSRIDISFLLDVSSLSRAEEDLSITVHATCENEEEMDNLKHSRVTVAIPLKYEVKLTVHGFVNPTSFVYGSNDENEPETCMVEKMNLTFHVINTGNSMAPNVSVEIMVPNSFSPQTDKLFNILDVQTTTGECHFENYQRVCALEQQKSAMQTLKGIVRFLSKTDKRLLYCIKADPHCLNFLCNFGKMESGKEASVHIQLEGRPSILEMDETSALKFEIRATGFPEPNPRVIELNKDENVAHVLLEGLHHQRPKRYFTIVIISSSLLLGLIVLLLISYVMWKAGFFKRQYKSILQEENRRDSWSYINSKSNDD
# Sequence (P26010 20-798): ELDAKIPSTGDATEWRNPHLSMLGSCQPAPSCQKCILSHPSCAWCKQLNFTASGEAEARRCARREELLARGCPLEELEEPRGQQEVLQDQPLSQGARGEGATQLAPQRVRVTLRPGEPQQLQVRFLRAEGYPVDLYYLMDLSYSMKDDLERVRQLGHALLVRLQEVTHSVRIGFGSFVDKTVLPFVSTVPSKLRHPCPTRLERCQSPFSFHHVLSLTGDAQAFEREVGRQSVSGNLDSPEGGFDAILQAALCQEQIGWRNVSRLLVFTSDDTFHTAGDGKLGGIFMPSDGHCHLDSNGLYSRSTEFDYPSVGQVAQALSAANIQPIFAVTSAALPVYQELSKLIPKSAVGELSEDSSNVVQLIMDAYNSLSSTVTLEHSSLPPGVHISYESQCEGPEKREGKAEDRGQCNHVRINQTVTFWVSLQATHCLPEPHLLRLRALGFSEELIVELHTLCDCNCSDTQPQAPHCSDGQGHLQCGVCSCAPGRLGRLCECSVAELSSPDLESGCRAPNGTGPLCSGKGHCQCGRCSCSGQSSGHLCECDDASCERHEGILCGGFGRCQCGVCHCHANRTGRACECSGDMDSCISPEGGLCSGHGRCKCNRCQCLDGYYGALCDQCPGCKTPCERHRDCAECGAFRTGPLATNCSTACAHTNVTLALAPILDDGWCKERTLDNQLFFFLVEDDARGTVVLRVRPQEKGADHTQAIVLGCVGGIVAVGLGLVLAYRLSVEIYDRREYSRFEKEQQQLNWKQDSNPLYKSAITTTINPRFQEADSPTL
# Assay: α4β7-MAdCAM Cell Adhesion Assay (RPMI 8866 human cells)
# Type: cell-based
# Set-up: host or cells: RPMI 8866 human B lymphoblastoid cells
# Conditions: Table 3-B, Potency (α4β7); range classes; read-out: α4β7 cell (Hu) IC50
# Outline: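 Adhesion read-out: MTT absorbance at 570 nm minus no-cell wells, after three washes. Plates coated with rh MAdCAM-1/Fc received peptide dilutions plus 200,000 RPMI 8866 cells in Mn2+ (1 mM)-supplemented DMEM, 0.1% BSA, HEPES pH 7, incubated 30-45 min, 37 °C.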
row,Structure (SMILES),IC50 [nM]
1,"CC(=O)N[C@@H]1C(=O)N(C)[C@@H](CCCNC(=N)N)C(=O)N[C@@H](CO)C(=O)N[C@@H](CC(=O)O)C(=O)N[C@@H]([C@@H](C)O)C(=O)N[C@@H](CC(C)C)C(=O)N[C@H](C(=O)N[C@@H](Cc2ccc3ccccc3c2)C(=O)N[C@H](CC(C)C)C(=O)N[C@H](CCCCNC(=O)COCC(=O)NCCCC[C@@H](NC(=O)[C@@H](CC(C)C)NC(=O)[C@H](Cc2ccc3ccccc3c2)NC(=O)[C@H]2NC(=O)[C@H](CC(C)C)NC(=O)[C@H]([C@@H](C)O)NC(=O)[C@H](CC(=O)O)NC(=O)[C@H](CO)NC(=O)[C@H](CCCNC(=N)N)N(C)C(=O)[C@@H](NC(C)=O)C(C)(C)SSC2(C)C)C(N)=O)C(N)=O)C(C)(C)SSC1(C)C [compound 119] (I: Ac-[Pen][NMeR]SDTL[Pen][2Nal][dL][dK]-NH2 / II: Ac-[Pen][NMeR]SDTL[Pen][2Nal][dL][dK]-NH2; disulfide I:1-I:7, II:1-II:7; linker I:10-II:10 via Diglycolyl)",500 to 1000
2,"CC(=O)N[C@@H]1C(=O)N(C)[C@@H](CCCNC(=N)N)C(=O)N[C@@H](CO)C(=O)N[C@@H](CC(=O)O)C(=O)N[C@@H]([C@@H](C)O)C(=O)N[C@@H](CC(C)C)C(=O)N[C@H](C(=O)N[C@@H](Cc2ccc3ccccc3c2)C(=O)N[C@H](CCCNC(=N)N)C(=O)N[C@H](CCCCNC(=O)COCC(=O)NCCCC[C@@H](NC(=O)[C@@H](CCCNC(=N)N)NC(=O)[C@H](Cc2ccc3ccccc3c2)NC(=O)[C@H]2NC(=O)[C@H](CC(C)C)NC(=O)[C@H]([C@@H](C)O)NC(=O)[C@H](CC(=O)O)NC(=O)[C@H](CO)NC(=O)[C@H](CCCNC(=N)N)N(C)C(=O)[C@@H](NC(C)=O)C(C)(C)SSC2(C)C)C(N)=O)C(N)=O)C(C)(C)SSC1(C)C [compound 120] (I: Ac-[Pen][NMeR]SDTL[Pen][2Nal][dR][dK]-NH2 / II: Ac-[Pen][NMeR]SDTL[Pen][2Nal][dR][dK]-NH2; disulfide I:1-I:7, II:1-II:7; linker I:10-II:10 via Diglycolyl)",1000 to 10000
3,"CC(=O)N[C@@H]1C(=O)N(C)[C@@H](CCCNC(=N)N)C(=O)N[C@@H](CO)C(=O)N[C@@H](CC(=O)O)C(=O)N[C@@H]([C@@H](C)O)C(=O)N[C@@H](CC(C)C)C(=O)N[C@H](C(=O)N[C@@H](Cc2ccc3ccccc3c2)C(=O)N2Cc3ccccc3C[C@H]2C(=O)N[C@H](CCCCNC(=O)COCC(=O)NCCCC[C@@H](NC(=O)[C@@H]2Cc3ccccc3CN2C(=O)[C@H](Cc2ccc3ccccc3c2)NC(=O)[C@H]2NC(=O)[C@H](CC(C)C)NC(=O)[C@H]([C@@H](C)O)NC(=O)[C@H](CC(=O)O)NC(=O)[C@H](CO)NC(=O)[C@H](CCCNC(=N)N)N(C)C(=O)[C@@H](NC(C)=O)C(C)(C)SSC2(C)C)C(N)=O)C(N)=O)C(C)(C)SSC1(C)C [compound 121] (I: Ac-[Pen][NMeR]SDTL[Pen][2Nal][Tic][dK]-NH2 / II: Ac-[Pen][NMeR]SDTL[Pen][2Nal][Tic][dK]-NH2; disulfide I:1-I:7, II:1-II:7; linker I:10-II:10 via Diglycolyl)",100 to 500
4,"CC(=O)N[C@@H]1C(=O)N(C)[C@@H](CCCNC(=N)N)C(=O)N[C@@H](CO)C(=O)N[C@@H](CC(=O)O)C(=O)N[C@@H]([C@@H](C)O)C(=O)N[C@@H](CC(C)C)C(=O)N[C@H](C(=O)N[C@@H](Cc2ccc(O)cc2)C(=O)N[C@H](CCC(=O)O)C(=O)N[C@H](CCCCNC(=O)COCC(=O)NCCCC[C@@H](NC(=O)[C@@H](CCC(=O)O)NC(=O)[C@H](Cc2ccc(O)cc2)NC(=O)[C@H]2NC(=O)[C@H](CC(C)C)NC(=O)[C@H]([C@@H](C)O)NC(=O)[C@H](CC(=O)O)NC(=O)[C@H](CO)NC(=O)[C@H](CCCNC(=N)N)N(C)C(=O)[C@@H](NC(C)=O)C(C)(C)SSC2(C)C)C(N)=O)C(N)=O)C(C)(C)SSC1(C)C [compound 123] (I: Ac-[Pen][NMeR]SDTL[Pen]Y[dE][dK]-NH2 / II: Ac-[Pen][NMeR]SDTL[Pen]Y[dE][dK]-NH2; disulfide I:1-I:7, II:1-II:7; linker I:10-II:10 via Diglycolyl)",50 to 100
5,"CC(=O)N[C@@H]1C(=O)N(C)[C@@H](CCCNC(=N)N)C(=O)N[C@@H](CO)C(=O)N[C@@H](CC(=O)O)C(=O)N[C@@H]([C@@H](C)O)C(=O)N[C@@H](CC(C)C)C(=O)N[C@H](C(=O)N[C@@H](Cc2c[nH]cn2)C(=O)N[C@H](CCC(=O)O)C(=O)N[C@H](CCCCNC(=O)COCC(=O)NCCCC[C@@H](NC(=O)[C@@H](CCC(=O)O)NC(=O)[C@H](Cc2c[nH]cn2)NC(=O)[C@H]2NC(=O)[C@H](CC(C)C)NC(=O)[C@H]([C@@H](C)O)NC(=O)[C@H](CC(=O)O)NC(=O)[C@H](CO)NC(=O)[C@H](CCCNC(=N)N)N(C)C(=O)[C@@H](NC(C)=O)C(C)(C)SSC2(C)C)C(N)=O)C(N)=O)C(C)(C)SSC1(C)C [compound 124] (I: Ac-[Pen][NMeR]SDTL[Pen]H[dE][dK]-NH2 / II: Ac-[Pen][NMeR]SDTL[Pen]H[dE][dK]-NH2; disulfide I:1-I:7, II:1-II:7; linker I:10-II:10 via Diglycolyl)",100 to 500
6,"CC(=O)N[C@@H]1C(=O)N(C)[C@@H](CCCNC(=N)N)C(=O)N[C@@H](CO)C(=O)N[C@@H](CC(=O)O)C(=O)N[C@@H]([C@@H](C)O)C(=O)N[C@@H](CC(C)C)C(=O)N[C@H](C(=O)N[C@@H](Cc2ccc(-c3ccccc3)cc2)C(=O)N[C@@H](CCC(=O)O)CC(=O)N[C@H](CCCCNC(=O)COCC(=O)NCCCC[C@@H](NC(=O)C[C@H](CCC(=O)O)NC(=O)[C@H](Cc2ccc(-c3ccccc3)cc2)NC(=O)[C@H]2NC(=O)[C@H](CC(C)C)NC(=O)[C@H]([C@@H](C)O)NC(=O)[C@H](CC(=O)O)NC(=O)[C@H](CO)NC(=O)[C@H](CCCNC(=N)N)N(C)C(=O)[C@@H](NC(C)=O)C(C)(C)SSC2(C)C)C(N)=O)C(N)=O)C(C)(C)SSC1(C)C [compound 135] (I: Ac-[Pen][NMeR]SDTL[Pen][Bip][β3hE][dK]-NH2 / II: Ac-[Pen][NMeR]SDTL[Pen][Bip][β3hE][dK]-NH2; disulfide I:1-I:7, II:1-II:7; linker I:10-II:10 via Diglycolyl)",< 10
7,"CC(=O)N[C@@H]1C(=O)N(C)[C@@H](CCCNC(=N)N)C(=O)N[C@@H](CO)C(=O)N[C@@H](CC(=O)O)C(=O)N[C@@H]([C@@H](C)O)C(=O)N[C@@H](CC(C)C)C(=O)N[C@H](C(=O)N[C@@H](Cc2ccc(-c3ccccc3)cc2)C(=O)N[C@@H](CCC(=O)O)C(=O)N(C)[C@@H](CCCCNC(=O)COCC(=O)NCCCC[C@@H](C(N)=O)N(C)C(=O)[C@H](CCC(=O)O)NC(=O)[C@H](Cc2ccc(-c3ccccc3)cc2)NC(=O)[C@H]2NC(=O)[C@H](CC(C)C)NC(=O)[C@H]([C@@H](C)O)NC(=O)[C@H](CC(=O)O)NC(=O)[C@H](CO)NC(=O)[C@H](CCCNC(=N)N)N(C)C(=O)[C@@H](NC(C)=O)C(C)(C)SSC2(C)C)C(N)=O)C(C)(C)SSC1(C)C [compound 136] (I: Ac-[Pen][NMeR]SDTL[Pen][Bip]E[NMeK]-NH2 / II: Ac-[Pen][NMeR]SDTL[Pen][Bip]E[NMeK]-NH2; disulfide I:1-I:7, II:1-II:7; linker I:10-II:10 via Diglycolyl)",< 10
8,"CC(=O)N[C@@H]1C(=O)N(C)[C@@H](CCCNC(=N)N)C(=O)N[C@@H](CO)C(=O)N[C@@H](CC(=O)O)C(=O)N[C@@H]([C@@H](C)O)C(=O)N[C@@H](CC(C)C)C(=O)N[C@H](C(=O)N[C@@H](Cc2ccc(C#N)cc2)C(=O)N[C@@H](CCC(=O)O)CC(=O)N[C@H](CCCCNC(=O)COCC(=O)NCCCC[C@@H](NC(=O)C[C@H](CCC(=O)O)NC(=O)[C@H](Cc2ccc(C#N)cc2)NC(=O)[C@H]2NC(=O)[C@H](CC(C)C)NC(=O)[C@H]([C@@H](C)O)NC(=O)[C@H](CC(=O)O)NC(=O)[C@H](CO)NC(=O)[C@H](CCCNC(=N)N)N(C)C(=O)[C@@H](NC(C)=O)C(C)(C)SSC2(C)C)C(N)=O)C(N)=O)C(C)(C)SSC1(C)C [compound 139] (I: Ac-[Pen][NMeR]SDTL[Pen][Phe(4-CN)][β3hE][dK]-NH2 / II: Ac-[Pen][NMeR]SDTL[Pen][Phe(4-CN)][β3hE][dK]-NH2; disulfide I:1-I:7, II:1-II:7; linker I:10-II:10 via Diglycolyl)",< 10
9,"CC(=O)N[C@@H]1C(=O)N(C)[C@@H](CCCNC(=N)N)C(=O)N[C@@H](CO)C(=O)N[C@@H](CC(=O)O)C(=O)N[C@@H]([C@@H](C)O)C(=O)N[C@@H](CC(C)C)C(=O)N[C@H](C(=O)N[C@@H](Cc2ccc3ccccc3c2)C(=O)N[C@@H](C(=O)N[C@H](CCCCNC(=O)COCC(=O)NCCCC[C@@H](NC(=O)[C@H](NC(=O)[C@H](Cc2ccc3ccccc3c2)NC(=O)[C@H]2NC(=O)[C@H](CC(C)C)NC(=O)[C@H]([C@@H](C)O)NC(=O)[C@H](CC(=O)O)NC(=O)[C@H](CO)NC(=O)[C@H](CCCNC(=N)N)N(C)C(=O)[C@@H](NC(C)=O)C(C)(C)SSC2(C)C)[C@H](C)O)C(N)=O)C(N)=O)[C@H](C)O)C(C)(C)SSC1(C)C [compound 140] (I: Ac-[Pen][NMeR]SDTL[Pen][2Nal][dT][dK]-NH2 / II: Ac-[Pen][NMeR]SDTL[Pen][2Nal][dT][dK]-NH2; disulfide I:1-I:7, II:1-II:7; linker I:10-II:10 via Diglycolyl)",10 to 25
10,CC(=O)N[C@@H]1C(=O)N(C)[C@@H](CCCNC(=N)N)C(=O)N[C@@H](CO)C(=O)N[C@@H](CC(=O)O)C(=O)N[C@@H](C(C)C)C(=O)N[C@@H](CC(C)C)C(=O)N[C@H](C(=O)N[C@@H](Cc2ccc3ccccc3c2)C(=O)N[C@H](CCC(=O)O)C(N)=O)C(C)(C)SSC1(C)C [compound 156] (Ac-[Pen][NMeR]SDVL[Pen][2Nal][dE]-NH2; disulfide 1-7),100 to 500
11,CC(=O)N[C@@H]1C(=O)N(C)[C@@H](CCCNC(=N)N)C(=O)N[C@@H](CO)C(=O)N[C@@H](CC(=O)O)C(=O)N[C@@H](Cc2ccccc2)C(=O)N[C@@H](CC(C)C)C(=O)N[C@H](C(=O)N[C@@H](Cc2ccc3ccccc3c2)C(=O)N[C@H](CCC(=O)O)C(N)=O)C(C)(C)SSC1(C)C [compound 157] (Ac-[Pen][NMeR]SDFL[Pen][2Nal][dE]-NH2; disulfide 1-7),1000 to 10000
